Common to all, as to experiment: NCI tumour cell line growth inhibition, 48 h
Assay [1] has as its system RXF-631 renal.
Assay [2] relates to DMS 114 small cell lung.
For assay [3], the system named is HOP-18 NSCLC.

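Values below derive from 48-hour exposures of cells grown in 96-well plates, with endpoints linearly interpolated between the two concentrations bracketing the appropriate inhibition level. At the TGI there is no net growth.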 Some results are limits rather than exact numbers.

For 13 molecules, TGI results are on record in PubChem BioAssay (NCI).

Turning to `CSc1ccc2c(cc1=O)[C@@H](NC(=O)c1cc(O)c(O)c(O)c1)CCc1cc(O)c(O)c(O)c1-2`, the TGI in assay [1] came out at 30.4 µM.
Take `C1=NC(N(Cc2ccccc2)Cc2ccccc2)N(Cc2ccccc2)N1` (stereo unspecified): the TGI in assay [1] turned out to be 56 µM; in assay [2], 29.3 µM; in assay [3] it was 45.7 µM.
Take `CC(=O)OCCOCNC(=S)N/N=C/c1ccc([N+](=O)[O-])s1`: the TGI is 26.4 µM in assay [2] and over 100 µM in assay [3].
For `CCOC(=O)CCC(NC(=O)c1ccc(NCc2ccc3nc(-c4ccccc4)c(Cl)nc3c2)cc1)C(=O)OCC` (stereo unspecified), the TGI in assay [1] is 70.3 µM; in assay [2], over 100 µM.
The molecule `NC(=O)c1cn(Cc2ccccc2)c(=O)n1Cc1ccccc1` showed a TGI in assay [3] of over 100 µM.
On to `CC(=O)O[C@]12CCCCCC1C1(O)C(O)CCCCC12` (stereo partly specified), for which, in assay [2], the TGI was over 100 µM.
As to `COc1ccc2nc3cc(Cl)ccc3c(Sc3ccc(NC(C)=O)cc3)c2c1`, the figures for the TGI in assay [1], in assay [2] and in assay [3] were over 100 µM, 14.1 µM and over 53.7 µM, respectively.
The molecule `Cc1ccc(NC(=O)C(=O)C2C(=O)NC(=O)NC2=O)cc1C` registered a TGI in assay [3] of over 100 µM.
For the molecule `CCCCCCCCCCCC(=O)OC[C@@H](C[As](=O)(O)O)OC(=O)CCCCCCCCCCC`, the TGI was determined as 4.54 µM in assay [2] and 27.7 µM in assay [3].
For `O=C1c2ccccc2C(=O)N1C/C=N/NS(=O)(=O)c1ccc(Br)cc1`, the TGI in assay [1], in assay [2] and in assay [3] was over 100 µM throughout.
For `COc1cc(-c2nnc3n2NC=C(C(=O)O)S3)cc(OC)c1OC`, the TGI was over 100 µM in assay [1], over 70 µM in assay [2] and over 100 µM in assay [3].
In the case of `CC(=O)OC(CCC1(C)OC1COc1ccc(CCNC(=O)C=C(C)C)cc1)C(C)(C)OC(C)=O` (stereo unspecified), the TGI in assay [2] is 48.7 µM; in assay [3] it was over 100 µM.
As to `C1COCCSC2=C(SCCO1)SC(=C1SC3=C(SCCOCCOCCS3)S1)S2`, the TGI in assay [2] and in assay [3] was over 100 µM in each case.
